Patent publication US20010053796A1, “Delta-aminolevulinic acid for prevention and treatment of infection microorganisms and parasite” (priority 2000, published 2001)

Key:
Edwardsiella tarda = test: Prevention effect for artificial infection (abdominal injection of bacteria); type: in vivo, Bastardhalibut; conditions: for Mortality during Cultivation: dead of 20 fish
Description: (§1) The water temperature was maintained at 20° C. (±2° C. ) throughout the experiment.
(§2) As the same method of above Experiment 1, fishes of both control group and experiment group were prepared and artificially infected by direct abdominal injection of Edwardsiella tarda 10^5 CFU per 1 fish. Each experimental fish was moved to fish tanks for monitoring and monitored for mortality according to infection for 2 weeks and viability after 2 weeks.

Staphylococcus epidermis = test: as above; type: in vivo, Bastardhalibut; conditions: for Mortality during Cultivation: dead of 20 fish
Description: The water temperature was maintained at 20° C. (±2° C. ) throughout the experiment. […]
Bastardhalibut and Sebastes schlegeli were infected by […] Staphylococcus epidermis through abdominal injection with the same method of fish breeding; δ-aminolevulinic acid treatment and artificial carried out in Experiment 1 and 2. Each experimental fish was moved to fish tanks for monitoring and monitored for mortality according to infection for 2 weeks. […] The treated group, with δ-aminolevulinic acid by tank administraion method and oral administration method, has shown high viability.

Bastardhalibut = test: Breeding before Scutica artificial infection (mortality during cultivation); conditions: oral (100 ppm per feed 1 kg), 1˜3 weeks
Description: 20 flatfish of about 25 g were set into 2 groups and 1 control group and cultivated in circulatory filtering system. In group 1, they were cultivated for 1˜3 weeks, maintaining the concentration of δ-aminolevulinic acid at 0.01˜50 ppm by administering δ-aminolevulinic acid once every 3 days to the cultivating water. In group 2, they were cultivated for 1˜3 weeks by administering δ-aminolevulinic acid solution, which was nebulized at the concentration of 0.1˜100 ppm and for artificial assorted feed (EP, fish body weight 3%: 15 g) 1 kg, and dried. In group 1 and the non-treated group, artificial assorted feed on the market with the same amount of feed of group 2 was used without δ-aminolevulinic acid treatment. […] The water temperature was maintained at 20° C. (±2° C.) throughout the experiment.

Scutica = test: Prevention effect for Scutica artificial infection of fish body in vivo; conditions: for Mortality during Cultivation: fish number 20
Description: (§3) The water temperature was maintained at 20° C. (±2° C.) throughout the experiment.

Pseudomonas sp. [1] = test: Prevention effect for artificial infection (abdominal injection of bacteria); type: in vivo, Bastardhalibut; conditions: for Mortality during Cultivation: dead of 20 fish
Description: as §1, §2
Bastardhalibut and Sebastes schlegeli were infected by Pseudomonas sp. through abdominal injection with the same method of fish breeding; δ-aminolevulinic acid treatment and artificial infection carried out in Experiment 1 and 2. Each experimental fish was moved to fish tanks for monitoring and monitored for mortality according to infection for 2 weeks.

Pseudomonas sp. [2] = test: Treatment effect of infected fry by oral administration in feed; type: in vivo, Bastardhalibut; conditions: 50 fish
Description: In this example, fry of Bastardhalibut and Sebastes schlegeli (mean body weight 2 g), 50 per each breeding tank, were preliminary-bred for 1 week and stabilized. […] The artificial infection methods were carried out through the digestion method. Pathogenic organisms were applied into fish tanks and introduced into seawater for an hour, wherein the concentration of organisms adjusted to 10^4 CFU/mL. Treatment conditions are as follows; after artificial infection, infected fish were moved to fish tanks and kept in the infection period for 3 days. […] The fish were bred for 2 weeks after exchanging with clean seawater and the mortality of fish according to infection was monitored. In the control groups, after each bacteria were identically infected through digestion method, mortality of Bastardhalibut and Sebastes schlegeli according to bacteria infection was identified while breeding with marketing assorted feed without δ-aminolevulinic acid. As a result of this experiment, δ-aminolevulinic acid-treated groups have shown high viability in both Bastardhalibut (Table 20˜Table 23) and Sebastes schlegeli (Table 24˜Table 27).

Sebastes schlegeli = test: Breeding before Scutica artificial infection (mortality during cultivation); type: in vivo; conditions: 1˜3 weeks; for Mortality during Cultivation: dead of 20 fish
Description: as §3

[3] = Administration to fish tanks, 0.01 ppm, Bastardhalibut
[4] = Administration to fish tanks, 0.01 ppm, Sebastes schlegeli
[5] = Administration to fish tanks, 0.1 pm, Bastardhalibut
[6] = Administration to fish tanks, 0.1 pm, Sebastes schlegeli
[7] = Administration to fish tanks, 1.0 ppm, Bastardhalibut
[8] = Administration to fish tanks, 1.0 ppm, Sebastes schlegeli
[9] = Administration to fish tanks, 5.0 ppm, Bastardhalibut
[10] = Administration to fish tanks, 5.0 ppm, Sebastes schlegeli
[11] = Administration to fish tanks, 10 ppm, Bastardhalibut
[12] = Administration to fish tanks, 10 ppm, Sebastes schlegeli
[13] = Administration to fish tanks, 50 ppm, Bastardhalibut
[14] = Administration to fish tanks, 50 ppm, Sebastes schlegeli
[15] = Oral Adminstration, 0.1 ppm, Bastardhalibut
[16] = Oral Adminstration, 0.1 ppm, Sebastes schlegeli
[17] = Oral Adminstration, 1.0 ppm, Bastardhalibut
[18] = Oral Adminstration, 1.0 ppm, Sebastes schlegeli
[19] = Oral Adminstration, 5 ppm, Bastardhalibut
[20] = Oral Adminstration, 5 ppm, Sebastes schlegeli
[21] = Oral Adminstration, 10 ppm, Bastardhalibut
[22] = Oral Adminstration, 10 ppm, Sebastes schlegeli
[23] = Oral Adminstration, 50 ppm, Bastardhalibut
[24] = Oral Adminstration, 50 ppm, Sebastes schlegeli
[25] = Oral Adminstration, 100 ppm, Bastardhalibut
[26] = Oral Adminstration, 100 ppm, Sebastes schlegeli
[27] = orally, 1.0 ppm in feed, Bastardhalibut
[28] = orally, 10 ppm in feed, Bastardhalibut
[29] = orally, 100 ppm in feed, Bastardhalibut
[30] = to fish tanks, 0.01 ppm, Bastardhalibut
[31] = to fish tanks, 0.1 ppm, Bastardhalibut
[32] = to fish tanks, 1.0 ppm, Bastardhalibut

Structure (SMILES): NCC(=O)CCC(=O)O [δ-aminolevulinic acid]
- Viability (Edwardsiella tarda; orally, 0.01 ppm in feed): 75%
- Mortality during Cultivation (Edwardsiella tarda; orally, 0.01 ppm in feed): 5
- Viability (Edwardsiella tarda; orally, 1.0 ppm in feed): 70%
- Mortality during Cultivation (Edwardsiella tarda; orally, 1.0 ppm in feed): 6
- Viability (Edwardsiella tarda; orally, 10 ppm in feed): 85%
- Mortality during Cultivation (Edwardsiella tarda; orally, 10 ppm in feed): 3
- Viability (Edwardsiella tarda; orally, 100 ppm in feed): 95%
- Mortality during Cultivation (Edwardsiella tarda; orally, 100 ppm in feed): 1
- Viability (Edwardsiella tarda; to fish tanks, 0.01 ppm): 65%
- Mortality during Cultivation (Edwardsiella tarda; to fish tanks, 0.01 ppm): 7
- Viability (Edwardsiella tarda; to fish tanks, 0.1 ppm): 75%
- Mortality during Cultivation (Edwardsiella tarda; to fish tanks, 0.1 ppm): 5
- Viability (Edwardsiella tarda; to fish tanks, 1.0 ppm): 85%
- Mortality during Cultivation (Edwardsiella tarda; to fish tanks, 1.0 ppm): 3
- Viability (Edwardsiella tarda; to fish tanks, 10 ppm): 90%
- Mortality during Cultivation (Edwardsiella tarda; to fish tanks, 10 ppm): 2
- Viability (Staphylococcus epidermis; orally, 0.1 ppm in feed): 50%
- Mortality during Cultivation (Staphylococcus epidermis; orally, 0.1 ppm in feed): 10
- Viability (Staphylococcus epidermis; orally, 1.0 ppm in feed): 55%
- Mortality during Cultivation (Staphylococcus epidermis; orally, 1.0 ppm in feed): 9
- Viability (Staphylococcus epidermis; orally, 10 ppm in feed): 70%
- Mortality during Cultivation (Staphylococcus epidermis; orally, 10 ppm in feed): 6
- Viability (Staphylococcus epidermis; orally, 100 ppm in feed): 80%
- Mortality during Cultivation (Staphylococcus epidermis; orally, 100 ppm in feed): 4
- Viability (Staphylococcus epidermis; to fish tanks, 0.01 ppm): 55%
- Mortality during Cultivation (Staphylococcus epidermis; to fish tanks, 0.01 ppm): 9
- Viability (Staphylococcus epidermis; to fish tanks, 0.1 ppm): 65%
- Mortality during Cultivation (Staphylococcus epidermis; to fish tanks, 0.1 ppm): 7
- Viability (Staphylococcus epidermis; to fish tanks, 1.0 ppm): 65%
- Mortality during Cultivation (Staphylococcus epidermis; to fish tanks, 1.0 ppm): 7
- Viability (Staphylococcus epidermis; to fish tanks, 10 ppm): 75%
- Mortality during Cultivation (Staphylococcus epidermis; to fish tanks, 10 ppm): 5
- Viability (Bastardhalibut): 100%
- Mortality during Cultivation (Bastardhalibut; dead of 20 fish): 0
- Viablity (%) (Scutica; [3]): 60%
- Mortality during Cultivation (Scutica; [3]): 8
- Viablity (%) (Scutica; [4]): 60%
- Mortality during Cultivation (Scutica; [4]): 8
- Viablity (%) (Scutica; [5]): 75%
- Mortality during Cultivation (Scutica; [5]): 7
- Viablity (%) (Scutica; [6]): 60%
- Mortality during Cultivation (Scutica; [6]): 8
- Viablity (%) (Scutica; [7]): 75%
- Mortality during Cultivation (Scutica; [7]): 5
- Viablity (%) (Scutica; [8]): 70%
- Mortality during Cultivation (Scutica; [8]): 6
- Viablity (%) (Scutica; [9]): 85%
- Mortality during Cultivation (Scutica; [9]): 3
- Viablity (%) (Scutica; [10]): 85%
- Mortality during Cultivation (Scutica; [10]): 3
- Viablity (%) (Scutica; [11]): 85%
- Mortality during Cultivation (Scutica; [11]): 3
- Viablity (%) (Scutica; [12]): 85%
- Mortality during Cultivation (Scutica; [12]): 3
- Viablity (%) (Scutica; [13]): 80%
- Mortality during Cultivation (Scutica; [13]): 4
- Viablity (%) (Scutica; [14]): 80%
- Mortality during Cultivation (Scutica; [14]): 4
- Viablity (%) (Scutica; [15]): 70%
- Mortality during Cultivation (Scutica; [15]): 6
- Viablity (%) (Scutica; [16]): 65%
- Mortality during Cultivation (Scutica; [16]): 7
- Viablity (%) (Scutica; [17]): 70%
- Mortality during Cultivation (Scutica; [17]): 6
- Viablity (%) (Scutica; [18]): 75%
- Mortality during Cultivation (Scutica; [18]): 5
- Viablity (%) (Scutica; [19]): 85%
- Mortality during Cultivation (Scutica; [19]): 3
- Viablity (%) (Scutica; [20]): 85%
- Mortality during Cultivation (Scutica; [20]): 3
- Viablity (%) (Scutica; [21]): 95%
- Mortality during Cultivation (Scutica; [21]): 1
- Viablity (%) (Scutica; [22]): 95%
- Mortality during Cultivation (Scutica; [22]): 1
- Viablity (%) (Scutica; [23]): 95%
- Mortality during Cultivation (Scutica; [23]): 1
- Viablity (%) (Scutica; [24]): 95%
- Mortality during Cultivation (Scutica; [24]): 1
- Viablity (%) (Scutica; [25]): 90%
- Mortality during Cultivation (Scutica; [25]): 2
- Viablity (%) (Scutica; [26]): 95%
- Mortality during Cultivation (Scutica; [26]): 1
- Viability (Pseudomonas sp. [1]; orally, 0.1 ppm in feed): 60%
- Mortality during Cultivation (Pseudomonas sp. [1]; orally, 0.1 ppm in feed): 8
- Viability (Pseudomonas sp. [1]; [27]): 55%
- Mortality during Cultivation (Pseudomonas sp. [1]; [27]): 9
- Viability (Pseudomonas sp. [1]; [28]): 90%
- Mortality during Cultivation (Pseudomonas sp. [1]; [28]): 2
- Viability (Pseudomonas sp. [1]; [29]): 90%
- Mortality during Cultivation (Pseudomonas sp. [1]; [29]): 2
- Viability (Pseudomonas sp. [1]; [30]): 60%
- Mortality during Cultivation (Pseudomonas sp. [1]; [30]): 8
- Viability (Pseudomonas sp. [1]; [31]): 70%
- Mortality during Cultivation (Pseudomonas sp. [1]; [31]): 6
- Viability (Pseudomonas sp. [1]; [32]): 90%
- Mortality during Cultivation (Pseudomonas sp. [1]; [32]): 2
- Viability (Pseudomonas sp. [1]; to fish tanks, 10 ppm): 90%
- Mortality during Cultivation (Pseudomonas sp. [1]; to fish tanks, 10 ppm): 2
- Viability (Pseudomonas sp. [2]; feed 0.1 ppm from 4th day of infection): 42%
- Viability (Pseudomonas sp. [2]; feed 1.0 ppm from 4th day of infection): 68%
- Viability (Pseudomonas sp. [2]; feed 50 ppm from 4th day of infection): 88%
- Viability (Pseudomonas sp. [2]; feed 100 ppm from 4th day of infection): 82%
- Viability (Sebastes schlegeli; oral (100 ppm per feed 1 kg)): 100%
- Mortality during Cultivation (Sebastes schlegeli; oral (100 ppm per feed 1 kg)): 0
- Viability (Sebastes schlegeli; to fish tanks (10 ppm)): 100%
- Mortality during Cultivation (Sebastes schlegeli; to fish tanks (10 ppm)): 0
